Laboratory results: the NIST ThermoML archive (doi:10.1021/je400055v)

Assay: xn = mol fraction of the nth substance listed
Details: Liquid, Vibrating tube method

CCCCCCCCCCC [undecane] + CCCCCCC
Details	mass density [kg/m3]
333.04 K, 8001 kPa, x2 = 0.5063	694.1
333.04 K, 9000 kPa, x2 = 0.5063	695
333.04 K, 10000 kPa, x2 = 0.5063	696
333.04 K, 11000 kPa, x2 = 0.5063	696.9
333.04 K, 12000 kPa, x2 = 0.5063	697.8
333.04 K, 13000 kPa, x2 = 0.5063	698.7
333.04 K, 14000 kPa, x2 = 0.5063	699.6
333.04 K, 15000 kPa, x2 = 0.5063	700.5
333.04 K, 16000 kPa, x2 = 0.5063	701.4
333.04 K, 17001 kPa, x2 = 0.5063	702.2
333.04 K, 18000 kPa, x2 = 0.5063	703.1
333.04 K, 19000 kPa, x2 = 0.5063	703.9
333.04 K, 20000 kPa, x2 = 0.5063	704.7
333.04 K, 21001 kPa, x2 = 0.5063	705.6
333.04 K, 22050 kPa, x2 = 0.5063	706.3
333.04 K, 23000 kPa, x2 = 0.5063	707.1
333.04 K, 24000 kPa, x2 = 0.5063	707.9
333.04 K, 25000 kPa, x2 = 0.5063	708.7
333.05 K, 1000 kPa, x2 = 0.7482	670.8
333.05 K, 2000 kPa, x2 = 0.7482	672
333.05 K, 3000 kPa, x2 = 0.7482	673.1
333.05 K, 4000 kPa, x2 = 0.7482	674.3
333.05 K, 5000 kPa, x2 = 0.7482	675.4
333.05 K, 6000 kPa, x2 = 0.7482	676.4
333.05 K, 7000 kPa, x2 = 0.7482	677.5
333.05 K, 8000 kPa, x2 = 0.7482	678.6
333.05 K, 9000 kPa, x2 = 0.7482	679.6
333.05 K, 10000 kPa, x2 = 0.7482	680.6
333.05 K, 11000 kPa, x2 = 0.7482	681.6
333.05 K, 12000 kPa, x2 = 0.7482	682.6
333.05 K, 13000 kPa, x2 = 0.7482	683.6
333.05 K, 14000 kPa, x2 = 0.7482	684.5
333.05 K, 15000 kPa, x2 = 0.7482	685.4
333.05 K, 16000 kPa, x2 = 0.7482	686.4
333.05 K, 17000 kPa, x2 = 0.7482	687.3
333.05 K, 18000 kPa, x2 = 0.7482	688.2
333.05 K, 19000 kPa, x2 = 0.7482	689
333.05 K, 20000 kPa, x2 = 0.7482	689.9
333.05 K, 21000 kPa, x2 = 0.7482	690.8
333.05 K, 22000 kPa, x2 = 0.7482	691.6
333.05 K, 23000 kPa, x2 = 0.7482	692.4
333.05 K, 24000 kPa, x2 = 0.7482	693.2
333.05 K, 25000 kPa, x2 = 0.7482	694
333.09 K, 1001 kPa, x2 = 0.05	709.1
333.09 K, 1004 kPa, x2 = 0.2346	701.3
333.09 K, 2001 kPa, x2 = 0.05	710.1
333.09 K, 2004 kPa, x2 = 0.2346	702.3
333.09 K, 3000 kPa, x2 = 0.05	711
333.09 K, 3003 kPa, x2 = 0.2346	703.3
333.09 K, 4000 kPa, x2 = 0.05	712
333.09 K, 4003 kPa, x2 = 0.2346	704.2
333.09 K, 5000 kPa, x2 = 0.05	712.9
333.09 K, 5003 kPa, x2 = 0.2346	705.2
333.09 K, 6000 kPa, x2 = 0.05	713.8
333.09 K, 6003 kPa, x2 = 0.2346	706.1
333.09 K, 7000 kPa, x2 = 0.05	714.7
333.09 K, 7003 kPa, x2 = 0.2346	707
333.09 K, 8001 kPa, x2 = 0.05	715.6
333.09 K, 8002 kPa, x2 = 0.2346	708
333.09 K, 9000 kPa, x2 = 0.05	716.5
333.09 K, 9002 kPa, x2 = 0.2346	708.9
333.09 K, 10000 kPa, x2 = 0.05	717.3
333.09 K, 10002 kPa, x2 = 0.2346	709.7
333.09 K, 11000 kPa, x2 = 0.05	718.2
333.09 K, 11002 kPa, x2 = 0.2346	710.6
333.09 K, 12000 kPa, x2 = 0.05	719
333.09 K, 12002 kPa, x2 = 0.2346	711.5
333.09 K, 13000 kPa, x2 = 0.05	719.9
333.09 K, 13001 kPa, x2 = 0.2346	712.3
333.09 K, 14000 kPa, x2 = 0.05	720.7
333.09 K, 14001 kPa, x2 = 0.2346	713.2
333.09 K, 15000 kPa, x2 = 0.05	721.5
333.09 K, 15002 kPa, x2 = 0.2346	714
333.09 K, 16000 kPa, x2 = 0.05	722.3
333.09 K, 16002 kPa, x2 = 0.2346	714.8
333.09 K, 17000 kPa, x2 = 0.05	723.1
333.09 K, 17002 kPa, x2 = 0.2346	715.6
333.09 K, 18000 kPa, x2 = 0.05	723.8
333.09 K, 18002 kPa, x2 = 0.2346	716.4
333.09 K, 19000 kPa, x2 = 0.05	724.6
333.09 K, 19001 kPa, x2 = 0.2346	717.2
333.09 K, 20000 kPa, x2 = 0.05	725.4
333.09 K, 20002 kPa, x2 = 0.2346	718
333.09 K, 21000 kPa, x2 = 0.05	726.1
333.09 K, 21035 kPa, x2 = 0.2346	718.8
333.09 K, 22001 kPa, x2 = 0.05	726.8
333.09 K, 22036 kPa, x2 = 0.2346	719.5
333.09 K, 23000 kPa, x2 = 0.05	727.6
333.09 K, 23038 kPa, x2 = 0.2346	720.3
333.09 K, 24000 kPa, x2 = 0.05	728.3
333.09 K, 24039 kPa, x2 = 0.2346	721
333.09 K, 25000 kPa, x2 = 0.05	729
333.09 K, 25041 kPa, x2 = 0.2346	721.8
